Tested on: patients with Type 2 diabetes
Assay: Clinical efficacy indexes before and after 3 months of Acarbose treatment in naïve patients with Type 2 diabetes, by enterotype
Assay type: in vivo, human
Conditions: Prevotella enterotype, After treatment
Protocol: For naïve patients with Type 2 diabetes, their liver and kidney functions, blood glucose and lipid levels, intestinal hormones, inflammatory factors, and cardiovascular risk-related factors are evaluated before medication. Their stool, urine, and blood samples are retained. […] The patients' blood glucose levels are followed up every month within 3 months, and the medication is adjusted according to the blood glucose level. Three months later, the pre-medication assessment is repeated, and the urine, stool and blood samples are retained.
a) A randomized, opened, positive control method is adopted to collect the naïve patients with Type 2 diabetes and normal controls of their spouses. […] The newly diagnosed patients of Type 2 diabetes without medication receive routine examinations, including the retention of stool and blood samples.
i. Draw venous blood 15 ml under fasting condition, of which, 1.5 ml is used for detection of plasma glucose, 6.5 ml is added to ordinary tubes (including aprotinin, DPPV inhibitor), and 6.5 ml is added to anticoagulant tubes (including heparin and RNA later)
ii. Centrifuge the blood in ordinary tube at 4° C., when serum is separated out, draw about 3 ml, and divide to three 1.5 ml Eppendorf on average, then tighten the tube caps;
iii. Centrifuge the anticoagulation blood immediately at 4° C., to separate out about 3 ml of plasma, then divide to three 1.5 ml imported RNAase free Eppendorf tubes on average, […]

C[C@H]1O[C@H](O[C@H]2[C@H](O)[C@@H](O)[C@@H](O[C@H]3[C@H](O)[C@@H](O)C(O)O[C@@H]3CO)O[C@@H]2CO)[C@H](O)[C@@H](O)[C@@H]1N[C@H]1C=C(CO)[C@@H](O)[C@H](O)[C@H]1O (stereo partly shown) [Acarbose]
AKP Mean: 77.5
ALB Mean: 44.39
ALT Mean: 44.36
APOA Mean: 1.267
APOB Mean: 0.9273
AST Mean: 29.36
Adipisin Mean: 3221619.467
Adpn Mean: 10063264.07
BMI Mean: 25.11
BW Mean: 72.63
CP0 Mean: 2.485
CP30 Mean: 2.802
CP60 Mean: 3.609
CP120 Mean: 5.305
CP180 Mean: 4.735
DBIL Mean: 6.293
DBP Mean: 74.93
ENDOM Mean: 14.27
Endothelin Mean: 4.776
FABP3 Mean: 2147
FABP4 Mean: 10510.4
FGF1M Mean: 24.33
FGF2M Mean: 13.67
FGF19M Mean: 19.3
FGF23M Mean: 43.47
G30 Mean: 7.601
G60 Mean: 9.055
G120 Mean: 9.171
G180 Mean: 7.853
GIP0 Mean: 57.4
GIP30 Mean: 208.4
GIP60 Mean: 217.2
GIP120 Mean: 227.8
GIP180 Mean: 194.8
GMCSFM Mean: 67.97
GO Mean: 6.712
HB Mean: 147.8
HBA1C Mean: 6.313
HDL Mean: 2.869
HGF Mean: 400.9
HIP Mean: 97.21
HOMA.IR Mean: 3.327
IFNr1 Mean: 38.8
IL1B Mean: 0.9107
IL1bM Mean: 22.23
IL2M Mean: 58.77
IL4M Mean: 31.074
IL5M Mean: 43.97
IL6M Mean: 40.53
IL6 Mean: 2.665
IL8 Mean: 15.44
IL9M Mean: 84.9
IL10 Mean: 1.798
IL12 Mean: 9.944
IL13 Mean: 279.4
IL15M Mean: 291.8
IL17AM Mean: 32.03
IL17EM Mean: 21.23
IL17FM Mean: 232.6
IL21 Mean: 34.47
IL22M Mean: 30.5
IL23M Mean: 41.7
IL27 Mean: 73.1
IL28a Mean: 18.37
IL31M Mean: 112.3
IL33M Mean: 43.5
INS0 Mean: 11.734
INS30 Mean: 14.21
INS60 Mean: 23.404
INS120 Mean: 27.84
INS180 Mean: 20.88
K Mean: 4.054
LBP Mean: 17.616
LDL Mean: 1.169
LEPTIN Mean: 4522
LPA Mean: 214.8
Lymph Mean: 28.21
MCP1 Mean: 252.8
MIP3A Mean: 29.94
NEU Mean: 63.59
NGAL Mean: 174248.3333
NGF Mean: 2.434
Na Mean: 142.2
PAI1 Mean: 61006.73333
PDGFAA Mean: 4507
PDGFAABB Mean: 24006.8
PP0 Mean: 69.67
PP30 Mean: 376.7
PP60 Mean: 318.92
PP120 Mean: 260.1
PP180 Mean: 204.7
RANTES Mean: 47562.53333
RBC Mean: 4.945
RCv Mean: 0.4421
SBP Mean: 119.8
TBIL Mean: 14.9
TC Mean: 4.883
TG Mean: 1.694
TNFBM Mean: 44.7
TNFa Mean: 4.572
TPRO Mean: 73.55
Trophonin M Mean: 17.9
WAIST Mean: 88.93
WBC Mean: 6.146
WHR Mean: 0.9136
bun Mean: 326.5
creatine Mean: 67.42
crp Mean: 19.638
egf Mean: 267.604
fetuinA Mean: 417.3
fgf1 Mean: 13.79
fgf2 Mean: 43.98
fgf21M Mean: 97.93
fgf21 Mean: 0.296
monocyte Mean: 5.829
mpo Mean: 467.3
oscatinM Mean: 101.1
pCP0 Mean: 1066
pCP30 Mean: 1362
pCP60 Mean: 1935.42
pCP120 Mean: 2723.04
pCP180 Mean: 2526
pGLP10 Mean: 3.644
pGLP130 Mean: 11.41
pGLP160 Mean: 13.72
pGLP1120 Mean: 9.07
pGLP1180 Mean: 6.458
pHOMA.IR Mean: 2.717
pgh0 Mean: 53.4025
pgh30 Mean: 64.28
pgh60 Mean: 56.35
pgh120 Mean: 42.5275
pgh0180 Mean: 50.87
pgluc0 Mean: 39.2
pgluc30 Mean: 41.17
pgluc60 Mean: 36.68
pgluc120 Mean: 29.63
pgluc180 Mean: 30.43
pins0 Mean: 416.3
pins30 Mean: 639.9
pins60 Mean: 969
pins120 Mean: 1373
pins180 Mean: 1153
platelet Mean: 206.3
ppyy0 Mean: 43.57
ppyy30 Mean: 64.34
ppyy60 Mean: 56.78
ppyy120 Mean: 54.02
ppyy180 Mean: 51.59
rGT Mean: 43.12
resistin Mean: 25013.66667
sicam1 Mean: 123
svcam1 Mean: 545.498
urea Mean: 4.954
vegfa Mean: 340.2
vegfc Mean: 128.7
vegfd Mean: 195.1

— patent US20180340225A1 (SHANGHAI INSTITUTE FOR ENDOCRINE AND METABOLIC DISEASES, priority 2015, published 2018)
